According to US6288110A, “Pharmaceutical compositions comprising disulfiram” (Yeda Research and Development Co Ltd., priority 1998, dated 2001):
“Also recorded” adds a separate entry of the source. Where two headings read alike, the source gives them in different places.

Assays:
[1] = tested on: 3T3 fibroblasts; assay: Cell rounding, 3T3 fibroblasts; assay type: cell-based; details: 1 μM
[2] = tested on: other tissues; assay: Tissue damage on systemic administration; details: 25-60 μg/mouse systemically
[3] = tested on: bovine capillary endothelial cells (BCE); assay: DNA synthesis (3H-thymidine incorporation) in BCE cells; assay type: cell-based
Description: Brain bovine capillary endothelial cells (BCE) and bovine vascular smooth muscle cells (BSMC), kindly provided by Prof. Israel Vlodavsky (Hadassah Medical School, Jerusalem, Israel), were cultured at 37° C. in low glucose DMEM (1 g/liter) supplemented with 10% calf serum (HyClone, Logan, Utah, U.S.A.), a serum-free supplement: biogro-1 (Beth Haemek, Israel) and GPS.
Bovine capillary endothelial cells (BCE) and bovine aortic BSMC were plated in 24-well plates (6000 cells per well) in 500 μl DMEM medium supplemented with 10% Colorado calf serum (CCS) (GIBCO, USA) and GPS. After 24 hours, medium was changed to starvation medium (2% CCS, 0.5% BSA, GPS) for 24 hours. ^3 H-methyl-thymidine (5 μCi/ml) was added for the last 6 hours. DNA synthesis assays were performed as described above, in triplicates. DNA synthesis assays in BALB/MK keratinocytes were performed as previously described (Marikovsky, 1995).-DNA synthesis assays were performed in triplicates.
Disulfiram was prepared in 0.1 mM stock solutions in DMSO. Control samples were incubated with the appropriate concentration of DMSO. Inhibition was calculated as percentage of DNA synthesis of control.
To determine whether disulfiram acts directly on endothelial cells rather than on accessory cells such as macrophages and mast cells that can be responsible for the development of an angiogenic response in vivo, the effect of the drug on the growth of BCE cells was examined in vitro as described in section (c) of "Materials and Methods" above. DNA synthesis in BCE cells was measured in presence of increasing concentrations of disulfiram incubated for 24 hours with the cells. […] Maximal inhibitory activity (80%) for BSMC was at 0.5-1 μM disulfiram, while maximal inhibitory activity for C6 glioma cells or BALB/MK keratinocytes was at concentrations 10 fold higher (2-3 μM) than those for endothelial cells (0.2-0.5 μM).
To examine the time course of the effect of disulfiram and whether the effect was reversible, cells were incubated with disulfiram for various periods of time (1, 2, 4 and 24 hours), then washed away and DNA synthesis was determined. One to 4 hours of exposure to disulfiram were enough to induce maximal inhibitory effect at concentrations ranging from 0.5 μM for BCE cells (FIG. 3A) to 5 μM for BALB/MK keratinocytes (FIG. 3C) and C6 glioma cells (FIG. 3D). […] BSMC were less sensitive as far as time course is concerned when incubated with 1 μM disulfiram. Following 4 hours of incubation with 1 μM disulfiram, DNA synthesis inhibition in BSMC reached only 50% (FIG. 3B). The data shown here indicate that the damage for capillary endothelial cells, following a short incubation of 1 to 2 hours, was maximal and that, at least in a time scale of 24 hours, this damage was non-reversible.

[4] = tested on: bladder cancer; details: N-butyl-N-(4-hydroxybutyl)nitrosamine or N-butyl-N-(3-carboxypropyl)nitrosamine, rats; cited from earlier work
[5] = tested on: C6 rat glioma cells; assay: TUNEL assay for apoptosis, C6 rat glioma cells; assay type: cell-based; details: 5 μM, 6 hours
Description: (§1) Cells were cultured on microscope slides for 48 hours in presence of growth media as described above, until reaching 40-50% confluency. Disulfiram was then added to the cells for 6 hours or for 20 hours in the case of BALB/MK keratinocytes, fixed with 4% paraformaldehyde and washed three times with PBS. Apoptosis was analyzed by the in situ TUNEL staining carried out as described (Wride, 1994). Briefly, microscope slides were incubated for 15 min in 2×SSC buffer at 60° C., washed in DDW and incubated with 20 μg/ml proteinase K (Boehringer Mannheim) for 15 min at room temperature. After a wash with DDW, endogenous peroxidases were inactivated by incubating the slides with 2% H2 O2 in PBST (PBS with 0.05% Tween 20) for 10 min at room temperature. Slides were then incubated in TdT buffer (Boehringer Mannheim) for 5 min at room temperature, and a reaction mixture containing 5×TdT buffer and 1 μl biotin-21-dUTP (Clontech, 1 mM stock) and 8 units of the TdT enzyme (Boehringer Mannheim) in total volume of 50 μl was subsequently added. The reactions were carried out at 37° C. for 1.5 hr in a humid chamber. The slides were washed in 2×SSC, DDW and finally with PBS and covered with 10% skim milk in PBST for 15 min. […]

[6] = tested on: Sarcoma 180, EL-4 leukemia or L1210 murine leukemia; details: cited from earlier work
[7] = tested on: BALB/MK keratinocytes; assay: TUNEL assay for apoptosis, BALB/MK keratinocytes; assay type: cell-based, murine; details: 5 μM
Description: as §1, with “Disulfiram was then added to the cells for 6 hours or for 20 hours in the case of BALB/MK keratinocytes, fixed with 4% paraformaldehyde and washed three times with PBS.” left out, “min. After removal of the skim milk, the sections were incubated with ABC solution from ABC kit (Vector Laboratories, Inc.) for 30 min at room temperature, washed with PBS and stained using AEC procedure (Sigma) The slides were then washed ×3 in DDW and stained with haematoxylin for 30 sec and mounted by Kaiser's glycerol gelatin (Merck).” for “min.”

[8] = ingested or injected intraperitoneally; cited from earlier work

With CCN(CC)C(=S)SSC(=S)N(CC)CC [disulfiram, Bis(diethylthiocarbamoyl) disulfide] the cell rounding [1] was “did not change their shape to the rounded form”, the “damage in other tissues” value [2] was “no evidence for damage in other tissues” and the “inhibition of DNA synthesis in BCE cells (in words)” value ([3]; 0.1-0.5 μM, 24 hours) was “inhibit DNA synthesis in BCE cells in a dose dependent manner”. The “reversibility of damage for capillary endothelial cells” value ([3]; 1 to 2 hours incubation, time scale of 24 hours) was “non-reversible”, the “concentration used in vitro for endothelial cells (inhibition of growth)” value ([3]; BCE) was 0.1 to 0.2 µM and the “inhibition of DNA synthesis, short incubation (in words)” value ([3]; BCE, 0.5 μM, 1-2 hours of incubation) was “near maximal inhibition of DNA synthesis”. For the same molecule, the “persistence of inhibitory effect after short exposure” value ([3]; BCE, 24 hours following short exposure) was “inhibitory effect seemed to be maintained”, the IC (maximal) ([3]; Bos taurus, Endothelial cell, BCE (endothelial cells), 24 hours, read-out: concentration of maximal inhibitory activity (DNA synthesis)) was 0.2 to 0.5 µM and the IC (maximal) ([3]; Bos taurus, Endothelial cell, BCE, 1 to 4 hours of exposure, washed, read-out: concentration inducing maximal inhibitory effect on DNA synthesis, short exposure) was 0.5 µM. The IC100 ([3]; Bos taurus, Endothelial cell, BCE, 24 hours, read-out: concentration of complete inhibition of DNA synthesis) was 0.5 µM, the “interference with induction of bladder cancer” value [4] was “interfere with induction of cancer” and the “apoptosis by TUNEL method” value [5] was “not labeled; also recorded: did not induce”. For the same molecule, the “effect on anti-tumor activity of ifosfamide and cyclophosphamide” value [6] was “without compromising their anti-tumor activity”, the “apoptosis by TUNEL method” value [7] was “did not induce” and the “distribution throughout the body” value [8] was “extensively distributed throughout the body including the brain”.
